Earlier results on three compounds are cited in patent publication US20090281186A1, “Composition and Method for Reducing Stress” (priority 2008, published 2009).

The structures appear in SMILES notation.

For data set [1] the following is noted: sixteen individuals; acute administration; 200 mg of L-theanine or 1 mg of alprazolam vs placebo.
The conditions of data set [2]: inositol compared with fluvoxamine.
For data set [3] the following is noted: 21 patients; 12 grams of inositol per day for four weeks; compared to placebo.
Data set [4] relates to dopamine release from the corpus straitum; serotonin levels in the hippocampus and thalamus. As to conditions: rats, L-theanine administration.

Regarding `Cc1nnc2n1-c1ccc(Cl)cc1C(c1ccccc1)=NC2` [alprazolam, reference compound], in data set [1], the “effect on subjects during the experimental relaxed state” value is on record as “had no effect”.
In the case of `O[C@H]1[C@H](O)[C@@H](O)[C@H](O)[C@@H](O)[C@H]1O` [inositol, cis-1,2,3,5-trans-4,6-cyclohexanehexol], the “effectiveness in treating panic disorders” value in data set [2] is “equally effective”. In addition, in data set [3], the “severity and frequency of panic attacks” value is “significantly decreased”.
`CCNC(=O)CCC(N)C(=O)O` [L-theanine, 2-amino-4-(ethylcarbamoyl)butyric acid]: the “effect on subjects during the experimental relaxed state” value in data set [1] was “caused a tranquil state”. In data set [4], the “dopamine release from the corpus straitum” value is listed as “increase dopamine release”; the “serotonin levels in the hippocampus and thalamus” value is “increase serotonin levels”. The “acute stress responses (psychological and physiological measures)” value (oral administration, 200 mg of L-theanine) is on record as “acute stress responses were reduced”. In addition, the “perception of stress (psychological measures)” value (twelve individuals, 200 mg of L-theanine before or midway through the task vs placebo) is “greater increase in the perception of stress in the placebo condition compared to the other conditions”. The “heart rates during the stress task” value (twelve individuals, 200 mg of L-theanine vs placebo) is on record as “heart rates were higher in the placebo condition compared to the L-theanine groups”.
